Measurements: patent publication US20260001914A1, “MACROCYCLIC PEPTIDES TARGETING KRAS” (Merck Sharp & Dohme LLC, priority 2022, published 2026)
*1 amine or outer side, *2 acyl side, *3 side chain or, on linkers, in order; H or OH if unused. Where a SMILES comes first, the peptide text is derived from it. Bridges are numbered along the chain shown (N, C = ends). [ ]: non-standard residue; d: D form. Phe(4-guanidino) = N=C(N)Nc1ccc(C[C@H](N)C(=O)O)cc1; X44 = C[C@@H](c1ccccc1)[C@@H](C(=O)[*:2])N(C)[*:1]; X19 = C[C@H](c1ccccc1)[C@@H](C(=O)[*:2])N(C)[*:1]; Ala(pyrimidin-5-yl) = N[C@@H](Cc1cncnc1)C(=O)O; Gly(N-(CH2)3-guanidino) = N=C(N)NCCCNCC(=O)O; X8 = CN([C@@H](Cc1ccc(F)nc1)C(=O)[*:2])[*:1]; Ala(thiazol-5-yl) = N[C@@H](Cc1cncs1)C(=O)O; NMePhe(3-Me) = CN[C@@H](Cc1cccc(C)c1)C(=O)O; X39 = CN([C@@H](Cc1cccnc1F)C(=O)[*:2])[*:1]; X43 = CN([C@@H](Cc1cnccc1F)C(=O)[*:2])[*:1]; X45 = CN([C@@H](Cc1ccncc1F)C(=O)[*:2])[*:1]; 3Pal(6-OMe) = COc1ccc(C[C@H](N)C(=O)O)cn1; X3 = CN([C@@H](Cc1cncnc1)C(=O)[*:2])[*:1]; X11 = CC(C)(F)CC[C@H](N[*:1])C(=O)[*:2]; Ala(cPent) = N[C@@H](CC1CCCC1)C(=O)O; Phe(2-F) = N[C@@H](Cc1ccccc1F)C(=O)O; X31 = O=C([C@H](CCC1CC1)N[*:1])[*:2]; Abu(4,4-F2) = N[C@@H](CC(F)F)C(=O)O; X1 = O=C(C12CC(CN[*:1])(C1)C2)[*:2]; NMeLys(Me) = CNCCCC[C@H](NC)C(=O)O; Ala(cPr) = N[C@@H](CC1CC1)C(=O)O; NMeF = CN[C@@H](Cc1ccccc1)C(=O)O; PhLac = O=C(O)[C@@H](O)Cc1ccccc1; Ahp(2) = CCCCC[C@H](N)C(=O)O; Cba = N[C@@H](CC1CCC1)C(=O)O; hLeu = CC(C)CC[C@H](N)C(=O)O; αMeC = C[C@](N)(CS)C(=O)O; NMeA = CN[C@@H](C)C(=O)O; Nle = CCCC[C@H](N)C(=O)O

Biological target: phosphorylation levels of ERK1/2 in AsPC-1 (homozygous KRAS-G12D) cells (Homo sapiens, UniProt P01116, G12D)
Sequence (P01116 1-186 G12D): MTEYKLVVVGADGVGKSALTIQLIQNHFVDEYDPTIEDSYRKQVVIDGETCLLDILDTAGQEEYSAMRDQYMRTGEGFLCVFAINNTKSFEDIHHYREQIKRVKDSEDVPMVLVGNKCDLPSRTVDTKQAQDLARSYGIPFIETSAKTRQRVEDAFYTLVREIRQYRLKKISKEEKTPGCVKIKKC
Test: Cellular phospho-ERK assay in AsPC-1 cells (Alpha Screen), assay medium without fetal bovine serum;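 also: signal taken as phospho-ERK over total ERK per well, both detected in one multiplex bead assay, EC50 from four-parameter logistic fit of dose-response curves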
Type: cell-based
Conditions: phospho-ERK AlphaScreen, 18 h

`CC(C)CC[C@@H]1NC(=O)[C@H](Cc2ccccc2F)NC(=O)[C@H](CC(F)F)NC(=O)[C@H](Cc2cncnc2)NC(=O)[C@H](C)N(C)C(=O)[C@H](Cc2ccccc2)OC(=O)C23CC(CNC(=O)[C@H](Cc4ccccc4)N(C)C1=O)(C2)C3` [compound 304, cyclo(FLac-NMeA-PyrimAla-AbuF2-Phe2F-hL-NMeF-amBCP)] (cyclo([NMeA][Ala(pyrimidin-5-yl)][Abu(4,4-F2)][Phe(2-F)][hLeu][NMeF][X1][PhLac])) and `CC(C)CC[C@@H]1NC(=O)[C@H](Cc2ccccc2F)NC(=O)[C@H](CC2CC2)NC(=O)[C@H](Cc2cncnc2)NC(=O)[C@H](C)N(C)C(=O)[C@H](Cc2ccccc2)OC(=O)C23CC(CNC(=O)[C@H](Cc4ccc(F)nc4)N(C)C1=O)(C2)C3` [compound 339, cyclo(FLac-NMeA-PyrimAla-cPrA-Phe2F-hL-NMe3Pal4F-amBCP)] (cyclo([Ala(cPr)][Phe(2-F)][hLeu][X8][X1][PhLac][NMeA][Ala(pyrimidin-5-yl)])) are within 1.5-fold of each other in EC50: 1.87 µM for the first, 1.65 µM for the second.

First: CCCC[C@@H]1NC(=O)[C@H](Cc2ccccc2)NC(=O)[C@H](C)N(C)C(=O)[C@H](Cc2ccccc2)OC(=O)C23CC(CNC(=O)[C@H](Cc4ccccc4)N(C)C(=O)[C@H](CCCC)NC(=O)[C@H](Cc4ccccc4F)NC1=O)(C2)C3 [compound 305, cyclo(FLac-NMeA-F-Nle-Phe2F-Nle-NMeF-amBCP)] (cyclo(F[Nle][Phe(2-F)][Nle][NMeF][X1][PhLac][NMeA]))
Second: Cc1cccc(C[C@H]2C(=O)NCC34CC(C3)(C4)C(=O)O[C@@H](Cc3ccccc3)C(=O)N(C)[C@@H](C)C(=O)N[C@@H](Cc3cncnc3)C(=O)N[C@@H](CC3CC3)C(=O)N[C@@H](Cc3ccccc3F)C(=O)N[C@@H](CCC3CC3)C(=O)N2C)c1 [compound 334, cyclo(FLac-NMeA-PyrimAla-cPrA-Phe2F-hcPrA-NMePhe3Me-amBCP)] (cyclo([Ala(cPr)][Phe(2-F)][X31][NMePhe(3-Me)][X1][PhLac][NMeA][Ala(pyrimidin-5-yl)]))
The EC50 of the first is higher: > 50.8 µM for the first, 0.224 µM for the second.

Going from `CC(C)CC[C@@H]1NC(=O)[C@H](Cc2ccccc2F)NC(=O)[C@H](CC2CCCC2)NC(=O)[C@H](Cc2cncnc2)NC(=O)[C@H](C)N(C)C(=O)[C@H](Cc2ccccc2)OC(=O)C23CC(CNC(=O)[C@H](Cc4cncnc4)N(C)C1=O)(C2)C3` [compound 335, cyclo(FLac-NMeA-PyrimAla-cPeA-Phe2F-hL-NMeAlaPyrim-amBCP)] (cyclo([Ala(cPent)][Phe(2-F)][hLeu][X3][X1][PhLac][NMeA][Ala(pyrimidin-5-yl)])) to `CC(C)CC[C@@H]1NC(=O)[C@H](Cc2ccccc2F)NC(=O)[C@H](CC2CC2)NC(=O)[C@H](Cc2cncnc2)NC(=O)[C@H](C)N(C)C(=O)[C@H](Cc2ccccc2)OC(=O)C23CC(CNC(=O)[C@H](Cc4ccncc4F)N(C)C1=O)(C2)C3` [compound 337, cyclo(FLac-NMeA-PyrimAla-cPrA-Phe2F-hL-NMe4Pal2F-amBCP)] (cyclo([Ala(cPr)][Phe(2-F)][hLeu][X45][X1][PhLac][NMeA][Ala(pyrimidin-5-yl)])), the EC50 falls from 5.27 µM to 3.35 µM (1.6-fold).

`CC(C)CC[C@@H]1NC(=O)[C@H](Cc2ccccc2F)NC(=O)[C@H](CC2CC2)NC(=O)[C@H](Cc2cncnc2)NC(=O)[C@H](C)N(C)C(=O)[C@H](Cc2ccccc2)OC(=O)C23CC(CNC(=O)[C@H](Cc4cccnc4F)N(C)C1=O)(C2)C3` [compound 336, cyclo(FLac-NMeA-PyrimAla-cPrA-Phe2F-hL-NMe3Pal2F-amBCP)] (cyclo([Ala(cPr)][Phe(2-F)][hLeu][X39][X1][PhLac][NMeA][Ala(pyrimidin-5-yl)])) and `CC(C)CC[C@@H]1NC(=O)[C@H](Cc2ccccc2F)NC(=O)[C@H](CC2CC2)NC(=O)[C@H](Cc2cncnc2)NC(=O)[C@H](C)N(C)C(=O)[C@H](Cc2ccccc2)OC(=O)C23CC(CNC(=O)[C@H](Cc4cnccc4F)N(C)C1=O)(C2)C3` [compound 338, cyclo(FLac-NMeA-PyrimAla-cPrA-Phe2F-hL-NMe3Pal6F-amBCP)] (cyclo([Ala(cPr)][Phe(2-F)][hLeu][X43][X1][PhLac][NMeA][Ala(pyrimidin-5-yl)])) are within 1.5-fold of each other in EC50: 1.39 µM for the first, 1.86 µM for the second.

Going from `C[C@@H](c1ccccc1)[C@H]1C(=O)NCC23CC(C2)(C3)C(=O)O[C@@H](Cc2ccccc2)C(=O)N(C)[C@@H](C)C(=O)N[C@@H](Cc2cncnc2)C(=O)N[C@@H](CC2CC2)C(=O)N[C@@H](Cc2ccccc2F)C(=O)N[C@@H](CCC(C)(C)F)C(=O)N1C` [compound 340, cyclo(FLac-NMeA-PyrimAla-cPrA-Phe2F-hL3F-NMeSbMeF-amBCP)] (cyclo([Ala(cPr)][Phe(2-F)][X11][X44][X1][PhLac][NMeA][Ala(pyrimidin-5-yl)])) to `C[C@H](c1ccccc1)[C@H]1C(=O)NCC23CC(C2)(C3)C(=O)O[C@@H](Cc2ccccc2)C(=O)N(C)[C@@H](C)C(=O)N[C@@H](Cc2cncnc2)C(=O)N[C@@H](CC2CC2)C(=O)N[C@@H](Cc2ccccc2F)C(=O)N[C@@H](CCC(C)(C)F)C(=O)N1C` [compound 341, cyclo(FLac-NMeA-PyrimAla-cPrA-Phe2F-hL3F-NMeRbMeF-amBCP)] (cyclo([Ala(cPr)][Phe(2-F)][X11][X19][X1][PhLac][NMeA][Ala(pyrimidin-5-yl)])), the EC50 rises from 4.25 µM to > 50.8 µM.

First: CCCCC[C@@H]1NC(=O)[C@H](Cc2ccc(OC)cc2)NC(=O)[C@H](CC2CCC2)NC(=O)[C@H](Cc2ccc(NC(=N)N)cc2)NC(=O)[C@H](CCCCNC)N(C)C(=O)[C@H](Cc2ccccc2)NC(=O)CSC[C@@](C)(C(N)=O)NC(=O)[C@H](Cc2ccccc2)N(C)C1=O [compound 360, cyclo(F-NMeLysMe-Phe4Gn-cBuA-TyrOMe-Ahp-NMeF-aMeCl-ClAc)] ({CH2CO}-F[NMeLys(Me)][Phe(4-guanidino)][Cba]Y(Me)[Ahp(2)][NMeF][αMeC]-NH2; thioether N-8)
Second: CCCCC[C@@H]1NC(=O)[C@H](Cc2ccc(OC)cc2)NC(=O)[C@H](CC2CCC2)NC(=O)[C@H](Cc2ccc(NC(=N)N)cc2)NC(=O)CN(CCCNC(=N)N)C(=O)[C@H](Cc2ccccc2)NC(=O)CSC[C@@](C)(C(N)=O)NC(=O)[C@H](Cc2ccccc2)N(C)C1=O [compound 361, cyclo(F-NGnG-Phe4Gn-cBuA-TyrOMe-Ahp-NMeF-aMeCl-ClAc)] ({CH2CO}-F[Gly(N-(CH2)3-guanidino)][Phe(4-guanidino)][Cba]Y(Me)[Ahp(2)][NMeF][αMeC]-NH2; thioether N-8)
The EC50 of the first is higher: > 50.8 µM for the first, 39.7 µM for the second.

`CCCCC[C@@H]1NC(=O)[C@H](Cc2ccc(OC)cc2)NC(=O)[C@H](CC2CCC2)NC(=O)[C@H](Cc2ccn(C)n2)NC(=O)[C@H](CCCNC(=N)N)NC(=O)[C@H](Cc2ccccc2)NC(=O)CSC[C@@](C)(C(N)=O)NC(=O)[C@H](Cc2ccccc2)N(C)C1=O` [compound 362, cyclo(F-R-MePyzAla-cBuA-TyrOMe-Ahp-NMeF-aMeCl-ClAc)] and `CCCCC[C@@H]1NC(=O)[C@H](Cc2ccc(OC)cc2)NC(=O)[C@H](CC2CCC2)NC(=O)[C@H](Cc2cncs2)NC(=O)[C@H](CCCNC(=N)N)NC(=O)[C@H](Cc2ccccc2)NC(=O)CSC[C@@](C)(C(N)=O)NC(=O)[C@H](Cc2ccccc2)N(C)C1=O` [compound 363, cyclo(F-R-TZAla-cBuA-TyrOMe-Ahp-NMeF-aMeCl-ClAc)] ({CH2CO}-FR[Ala(thiazol-5-yl)][Cba]Y(Me)[Ahp(2)][NMeF][αMeC]-NH2; thioether N-8) cannot be ordered by EC50: > 50.8 µM for the first, > 50.8 µM for the second.

`CCCCC[C@@H]1NC(=O)[C@H](Cc2ccc(OC)cc2)NC(=O)[C@H](CC2CCC2)NC(=O)[C@H](Cc2ccc(C)nc2)NC(=O)[C@H](CCCNC(=N)N)NC(=O)[C@H](Cc2ccccc2)NC(=O)CSC[C@@](C)(C(N)=O)NC(=O)[C@H](Cc2ccccc2)N(C)C1=O` [compound 364, cyclo(F-R-4Me3Pal-cBuA-TyrOMe-Ahp-NMeF-aMeCl-ClAc)] and `CCCCC[C@@H]1NC(=O)[C@H](Cc2ccc(OC)cc2)NC(=O)[C@H](CC2CCC2)NC(=O)[C@H](Cc2ccc(OC)nc2)NC(=O)[C@H](CCCNC(=N)N)NC(=O)[C@H](Cc2ccccc2)NC(=O)CSC[C@@](C)(C(N)=O)NC(=O)[C@H](Cc2ccccc2)N(C)C1=O` [compound 365, cyclo(F-R-40Me3Pal-cBuA-TyrOMe-Ahp-NMeF-aMeCl-ClAc)] ({CH2CO}-FR[3Pal(6-OMe)][Cba]Y(Me)[Ahp(2)][NMeF][αMeC]-NH2; thioether N-8) cannot be ordered by EC50: > 50.8 µM for the first, > 50.8 µM for the second.

First: CCCCC[C@@H]1NC(=O)[C@H](Cc2ccc(OC)cc2)NC(=O)[C@H](CC2CCCC2)NC(=O)[C@H](Cc2ccc(NC(=N)N)cc2)NC(=O)[C@H](CCCNC(=N)N)NC(=O)[C@H](Cc2ccccc2)NC(=O)CSC[C@@](C)(C(N)=O)NC(=O)[C@H](Cc2ccccc2)N(C)C1=O [compound 366, cyclo(F-R-Phe4Gn-cPeA-TyrOMe-Ahp-NMeF-aMeCl-ClAc)] ({CH2CO}-FR[Phe(4-guanidino)][Ala(cPent)]Y(Me)[Ahp(2)][NMeF][αMeC]-NH2; thioether N-8)
Second: CCCCC[C@@H]1NC(=O)[C@H](Cc2ccc(OC)cc2)NC(=O)[C@H](CC2CCC2)NC(=O)[C@H](Cc2ccc(=O)[nH]c2)NC(=O)[C@H](CCCNC(=N)N)NC(=O)[C@H](Cc2ccccc2)NC(=O)CSC[C@@](C)(C(N)=O)NC(=O)[C@H](Cc2ccccc2)N(C)C1=O [compound 369, cyclo(F-R-4CO3Pal-cBuA-TyrOMe-Abp-NMeF-aMeCl-ClAc)]
The EC50 of the first is lower: 12.2 µM for the first, > 50.8 µM for the second. The first is the more potent here.

`CCCCC[C@@H]1NC(=O)[C@H](Cc2ccc(OC)cc2)NC(=O)[C@H](CC2CCC2)NC(=O)[C@H](Cc2cncnc2)NC(=O)[C@H](CCCNC(=N)N)NC(=O)[C@H](Cc2ccccc2)NC(=O)CSC[C@@](C)(C(N)=O)NC(=O)[C@H](Cc2ccccc2)N(C)C1=O` [compound 367, cyclo(F-R-PyrimAla-cBuA-TyrOMe-Ahp-NMeF-aMeCl-ClAc)] ({CH2CO}-FR[Ala(pyrimidin-5-yl)][Cba]Y(Me)[Ahp(2)][NMeF][αMeC]-NH2; thioether N-8) and `CCCCC[C@@H]1NC(=O)[C@H](Cc2ccc(OC)cc2)NC(=O)[C@H](CC2CCC2)NC(=O)[C@H](Cc2cc[nH]c(=O)c2)NC(=O)[C@H](CCCNC(=N)N)NC(=O)[C@H](Cc2ccccc2)NC(=O)CSC[C@@](C)(C(N)=O)NC(=O)[C@H](Cc2ccccc2)N(C)C1=O` [compound 368, cyclo(F-R-SCO4Pal-cBuA-TyrOMe-Ahp-NMeF-aMeCl-ClAc)] cannot be ordered by EC50: > 50.8 µM for the first, > 50.8 µM for the second.
